Laboratory results taken from EP0118120A2, “1,4-Dihydropyridine compound” (priority 1983, dated 1984).

How the values were obtained:
[1] = test system: liver disorder induced by carbon tetrachloride; test: Effect on liver disorder induced by carbon tetrachloride in rats, serum GOT, GPT, AlP, bilirubin (Example 26); format: in vivo, SLC-Wistar male rats; details: rats 9 weeks old
Protocol: (§1) Effect of the compounds according to the present invention on liver disorder induced by carbon tetrachloride
(§2) The effects of the sample compounds to be tested on hepatic disorder were evaluated by determining the levels of GOT, GPT, AlP, and bilirubin, which are known as an indicator of hepatic disorder, in serum, after administering carbon tetrachloride and the sample compounds to SLC-Wistar male rats (9 weeks old and body weight of 210 to 250 g in Tables 1, 3, and 4, and 10 weeks old and body weight of 230 to 260 g in Table 2) as follows.
(§3) Five rats were used in each test group. The sample compound (i.e., each compound listed below) was suspended at a concentration of 40 mg/ml in a 0.1% aqueous solution of Tween-80 (i.e., nonionic surfactant available from Atlas Powder Co., Ltd.). The resultant suspension was orally administered at a dose of 200 mg/kg each at 25 hours and 1 hour before the administration of carbon tetrachloride, except for the control group. For the control group to which only carbon tetrachloride was administered in the evaluation test, a 0.1% aqueous Tween-80 was orally administered at a dose of 5 ml/kg in the same manner.
(§4) Carbon tetrachloride was intraperiotoneally administered as a 10% olive oil solution at a dose of 5 ml/kg (0.5 ml/kg in terms of CC14) one hour after the final administration of the sample compound. For the control (normal) group, olive oil was intraperitoneally administered in the same manner at a dose of 5 ml/kg.
(§5) Blood samples were collected from the carotid artery under pentobarbital anesthesia, 24 hours after the administration of carbon tetrachloride. The rats were fasted for 18 to 22 hours before collecting the blood samples.
(§6) The determination of GOT and GPT in serum was carried out according to a UV method, the determination of AlP was carried cut according to Bessy-Lowry method, and the determination of bilirubin was carried out according to a diazo method.

[2] = Acute toxicity, oral LD50 in rats (Example 29); format: in vivo; details: rat, in vivo, male rats 5 weeks old, 100 to 125 g, observed for one week
Description: (§7) Acute toxicity of the compounds according to the present invention

[3] = test system: liver disorder induced by carbon tetrachloride; test: Effect on liver disorder induced by carbon tetrachloride in rats, repeat with 8 weeks old rats (Example 27); format: in vivo, SLC-Wistar male rats; details: Table 5, serum 24 hours after CCl4, 200 mg/kg orally x2, rats 8 weeks old; for GOT: 170 to 210 g, CCl4 only 27875 ± 3628, normal 78 ± 3; for Bilirubin: CCl4 only 0.55 ± 0.16, normal 0.10 ± 0.00; for AlP: CCl4 only 41.3 ± 2.5, normal 25.7 ± 0.4; for GPT: CCl4 only 12984 ± 1465, normal 30 ± 3
Protocol: as §2, §3, §4, §5, §6, §1
The evaluation tests of Example 26 were repeated except that SLC-Wistar male rats (8 weeks old and body weight of 170 to 210 g) were used.

[4] = test system: SLC-Wistar male rats; test: Acute toxicity, oral LD50 in rats (Example 29); format: in vivo; details: male rats 5 weeks old, 100 to 125 g, observed for one week, 10080 min
Description: as §7

[5] = Acute toxicity, oral LD50 in rats (Example 28); details: rat, in vivo, male rats 5 weeks old, 130 to 150 g, observed for one week
Description: as §7

[6] = Table 3, serum 24 hours after CCl4, 200 mg/kg orally x2, CCl4 only 0.38 ± 0.06, normal 0.22 ± 0.04
[7] = Table 3, serum 24 hours after CCl4, 200 mg/kg orally x2, CCl4 only 34.4 ± 2.6, normal 27.0 ± 0.5
[8] = Table 3, serum 24 hours after CCl4, 200 mg/kg orally x2, CCl4 only 9188 ± 1815, normal 30 ± 2
[9] = Table 3, serum 24 hours after CCl4, 200 mg/kg orally x2, CCl4 only 13189 ± 2205, normal 81 ± 3
[10] = Table 4, serum 24 hours after CCl4, 200 mg/kg orally x2, CCl4 only 0.38 ± 0.04, normal 0.10 ± 0.00
[11] = Table 4, serum 24 hours after CCl4, 200 mg/kg orally x2, CCl4 only 35.0 ± 2.0, normal 24.4 ± 0.7
[12] = Table 4, serum 24 hours after CCl4, 200 mg/kg orally x2, CCl4 only 10523 ± 2313, normal 31 ± 3
[13] = Table 4, serum 24 hours after CCl4, 200 mg/kg orally x2, CCl4 only 17704 ± 4140, normal 76 ± 4

Molecule: CC(=O)C1=C(C)NC(C)=C(C(C)=O)C1C1=C(C)OC(C)CO1 (centres unmarked) [Sample Compound O, 3,5-diacetyl-2,6-dimethyl-4-2-(3,5-dimethyl-5,6-dihydro-p-dioxinyl) -1,4-dihydro pyridine]
- Bilirubin [1, 6]: 0.26 ± 0.02 mg/dL
- AlP [1, 7]: 37.2 ± 1.6 K-AU.
- GPT [1, 8]: 410 ± 64 K.U.
- GOT [1, 9]: 565 ± 98 K.U.
- LD50 at 168 h [2]: > 2000 mg/kg

Molecule: COCC1=C(C2C(C(C)=O)=C(C)NC(C)=C2C(C)=O)OCCO1 [Sample Compound V, 3,5-diacetyl-4-2-(3-methoxy-methvl-5,6-dihydro-p-dioxinyl) -2,6-dimethyl-l,4-dihydropyridine]
- GOT [3]: 2036 ± 677 K.U.
- Bilirubin [3]: 0.15 ± 0.03 mg/dL
- AlP [3]: 35.6 ± 1.4 K-AU.
- GPT [3]: 1251 ± 414 K.U.
- LD50 at 168 h [2]: > 2000 mg/kg

Molecule: 3,5-dicyano-4-[2-(5,6-dihydro-p--dioxinyl)]-2,6-dimethyl-1,4-dihvdropyridine [Sample Compound A]
- GOT ([1]; Table 1, serum 24 hours after CCl4 0.5 ml/kg i.p., compound 200 mg/kg orally 25 hours and 1 hour before CCl4, CCl4 only 17327 ± 2336, normal 76 ± 1): 3874 ± 792 K.U.
- Bilirubin ([1]; Table 1, serum 24 hours after CCl4, 200 mg/kg orally x2, CCl4 only 0.62 ± 0.30, normal 0.10 ± 0.00): 0.24 ± 0.02 mg/dL
- AlP ([1]; Table 1, serum 24 hours after CCl4, 200 mg/kg orally x2, CCl4 only 35.5 ± 2.5, normal 23.6 ± 0.4): 31.4 ± 0.9 K-AU.
- GPT ([1]; Table 1, serum 24 hours after CCl4, 200 mg/kg orally x2, CCl4 only 10496 ± 1221, normal 31 ± 2): 2380 ± 472 K.U.
- LD50 [4]: more than 1000 mg/kg

Molecule: COCOC(=O)C1=C(C)NC(C)=C(C(=O)OCOC)C1C1=COCCO1 [Sample Compound F, bis(methoxymethyl) 4-[2-(5,6-dihydro-p-dioxinyl)]-2,6-dimethyl-1,4-dihydrcpyridine-3,5-dicarboxylate]
- Bilirubin [1, 6]: 0.22 ± 0.05 mg/dL
- AlP [1, 7]: 26.4 ± 1.0 K-AU.
- GPT [1, 8]: 274 ± 99 K.U.
- GOT [1, 9]: 432 ± 107 K.U.
- LD50 at 168 h [2]: > 2000 mg/kg

Molecule: C#CCOC(=O)C1=C(C)NC(C)=C(C(=O)OCC#C)C1C1=COCCO1 [Sample Compound I, dipropargyl 4-[2-(5,6-dihydro-p-dioxinyl)]-2,6-dimethyl-l,4-dihydropyridine-3,5-dicarboxylate]
- Bilirubin [1, 10]: 0.22 ± 0.02 mg/dL
- AlP [1, 11]: 27.6 ± 1.8 K-AU.
- GPT [1, 12]: 2110 ± 228 K.U.
- GOT [1, 13]: 2925 ± 380 K.U.
- LD50 at 168 h [5]: > 2000 mg/kg

Molecule: COCN1C(C)=C(C(C)=O)C(C2=COCCO2)C(C(C)=O)=C1C [Sample Compound R, 3,5-diacetyl-4-[2-(5,6-dihydro-p-dioxinyl)]-1-methoxymethyl-2,6-dimethyl-1,4-dihydropyridine]
- GOT [3]: 425 ± 124 K.U.
- Bilirubin [3]: 0.16 ± 0.02 mg/dL
- AlP [3]: 31.4 ± 1.6 K-AU.
- GPT [3]: 260 ± 98 K.U.
- LD50 at 168 h [2]: > 1500 mg/kg

Molecule: C=CCOC(=O)C1=C(C)NC(C)=C(C(=O)OCC=C)C1C1=COCCO1 [Sample Compound H, diallyl 4-[2-(5,6-dihydro-p-dioxinyl)]-2,6-dimethyl-l,4-dihydropyridine-3,5-dicarboxylate]
- Bilirubin [1, 10]: 0.22 ± 0.04 mg/dL
- AlP [1, 11]: 29.5 ± 2.4 K-AU.
- GPT [1, 12]: 1453 ± 699 K.U.
- GOT [1, 13]: 1920 ± 881 K.U.
- LD50 at 168 h [5]: > 1000 mg/kg
